Our source for the IC50 values is patent US7928107B2, “Quinazolines useful as modulators of ion channels” (Vertex Pharmaceuticals Incorporated, priority 2004, dated 2011).

By IC50 is commonly meant the point on the concentration scale where inhibition reaches its midpoint.

A value given as a limit tells only on which side of the number the result lay.

The target in the experiment is NaV 1.8 channel (Homo sapiens, UniProt Q9Y5Y9). As to the kind of experiment: Activity against NaV 1.8 channel (optical membrane potential assay). Format: cell-based. In outline: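 Cells expressing the NaV of interest loaded with CC2-DMPE (30 min, room temperature) then DiSBAC2(3) with ABSCl and veratridine; compound incubated 20–30 min. Depolarization triggered by sodium add-back and read on VIPR as 460/580 nm FRET ratio (Rf/Ri), normalized to tetracaine and untreated controls.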
Chain of NaV 1.8 channel (Q9Y5Y9 whole entry): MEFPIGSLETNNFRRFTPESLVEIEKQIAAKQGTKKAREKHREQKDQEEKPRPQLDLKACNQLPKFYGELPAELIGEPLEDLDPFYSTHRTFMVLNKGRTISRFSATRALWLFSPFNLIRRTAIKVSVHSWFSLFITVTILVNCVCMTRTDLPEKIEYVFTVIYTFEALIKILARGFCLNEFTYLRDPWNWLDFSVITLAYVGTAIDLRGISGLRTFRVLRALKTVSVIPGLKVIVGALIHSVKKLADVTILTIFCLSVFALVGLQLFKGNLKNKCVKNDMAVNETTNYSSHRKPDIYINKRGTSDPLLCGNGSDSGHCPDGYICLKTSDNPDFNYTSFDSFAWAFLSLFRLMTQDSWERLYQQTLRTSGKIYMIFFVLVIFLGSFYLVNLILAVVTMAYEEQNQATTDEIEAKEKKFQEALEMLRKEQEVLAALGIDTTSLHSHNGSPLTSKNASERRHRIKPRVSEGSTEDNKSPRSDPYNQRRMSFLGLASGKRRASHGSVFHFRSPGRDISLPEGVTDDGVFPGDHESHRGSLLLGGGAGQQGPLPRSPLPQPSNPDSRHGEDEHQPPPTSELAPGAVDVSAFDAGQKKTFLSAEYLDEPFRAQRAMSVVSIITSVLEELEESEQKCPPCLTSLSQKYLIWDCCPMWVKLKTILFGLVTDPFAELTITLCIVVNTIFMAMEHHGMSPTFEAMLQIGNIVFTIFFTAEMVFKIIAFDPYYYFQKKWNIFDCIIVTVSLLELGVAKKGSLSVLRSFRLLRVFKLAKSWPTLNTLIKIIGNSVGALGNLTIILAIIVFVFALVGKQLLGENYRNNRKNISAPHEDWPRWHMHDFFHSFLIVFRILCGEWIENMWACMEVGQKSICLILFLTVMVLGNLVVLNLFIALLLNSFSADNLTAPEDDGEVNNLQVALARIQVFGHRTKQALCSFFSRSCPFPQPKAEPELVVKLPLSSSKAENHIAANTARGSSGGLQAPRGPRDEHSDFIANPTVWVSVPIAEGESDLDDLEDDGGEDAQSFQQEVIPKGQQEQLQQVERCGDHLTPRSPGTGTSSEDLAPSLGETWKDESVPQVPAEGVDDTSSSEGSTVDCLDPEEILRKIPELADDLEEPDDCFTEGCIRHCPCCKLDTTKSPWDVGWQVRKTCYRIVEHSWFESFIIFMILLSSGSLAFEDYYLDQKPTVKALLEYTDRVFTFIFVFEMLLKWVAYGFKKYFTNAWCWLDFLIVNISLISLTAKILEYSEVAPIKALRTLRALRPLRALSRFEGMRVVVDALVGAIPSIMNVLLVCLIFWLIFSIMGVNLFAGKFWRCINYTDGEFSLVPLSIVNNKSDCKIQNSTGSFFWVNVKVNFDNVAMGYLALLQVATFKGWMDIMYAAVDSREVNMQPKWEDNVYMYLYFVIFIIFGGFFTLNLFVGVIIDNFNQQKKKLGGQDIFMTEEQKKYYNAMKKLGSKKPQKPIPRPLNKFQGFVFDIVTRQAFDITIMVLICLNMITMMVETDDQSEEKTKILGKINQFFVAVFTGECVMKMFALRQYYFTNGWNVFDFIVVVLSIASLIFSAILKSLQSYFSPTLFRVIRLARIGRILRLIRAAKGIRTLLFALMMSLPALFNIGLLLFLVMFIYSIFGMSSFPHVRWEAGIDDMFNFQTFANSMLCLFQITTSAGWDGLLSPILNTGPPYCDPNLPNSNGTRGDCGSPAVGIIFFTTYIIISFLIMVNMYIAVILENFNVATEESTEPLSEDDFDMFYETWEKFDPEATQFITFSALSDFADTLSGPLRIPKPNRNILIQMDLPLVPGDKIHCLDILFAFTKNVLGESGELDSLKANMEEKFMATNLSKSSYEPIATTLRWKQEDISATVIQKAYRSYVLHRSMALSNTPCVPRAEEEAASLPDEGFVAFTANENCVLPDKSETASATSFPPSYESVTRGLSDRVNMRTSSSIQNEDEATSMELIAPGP

As to `CCOC(=O)NC[C@@H]1CCCN(c2nc(-c3ccccc3O)nc3cc(C)ccc23)C1` [Example 254, Ethyl((S)-1-(2-(2-hydroxyphenyl)-7-methylquinazolin-4-yl)piperidin-3-yl)methylcarbamate], the IC50 was in the range of 2 to 10 µM. Consider `Cc1ccc2c(N3CCC[C@@H](CNC(=O)OC(C)C)C3)nc(-c3ccccc3O)nc2c1` [Example 255, Isopropyl ((S)-1-(2-(2-hydroxyphenyl)-7-methylquinazolin-4-yl)piperidin-3-yl)methylcarbamate], for which the IC50 was over 10 µM. `CCCOC(=O)NC[C@@H]1CCCN(c2nc(-c3ccccc3O)nc3cc(C)ccc23)C1` [Example 256, Propyl ((S)-1-(2-(2-hydroxyphenyl)-7-methylquinazolin-4-yl)piperidin-3-yl)methylcarbamate]: the IC50 lay within 2 to 10 µM. For `COCCOC(=O)NC[C@@H]1CCCN(c2nc(-c3ccccc3O)nc3cc(C)ccc23)C1` [Example 257, 2-Methoxyethyl ((S)-1-(2-(2-hydroxyphenyl)-7-methylquinazolin-4-yl)piperidin-3-yl)methylcarbamate] the value was 2 to 10 µM; for `COCCOC(=O)NC1CCN(c2nc(-c3ccccc3O)nc3ccc(F)cc23)CC1` [Example 258, 2-Methoxyethyl 1-(6-fluoro-2-(2-hydroxyphenyl)quinazolin-4-yl)piperidin-4-ylcarbamate], under 2 µM. Turning to `Cc1ccc2c(N3CCC(NC(=O)OC(C)(C)C)CC3)nc(-c3ccccc3O)nc2c1` [Example 259, {1-[2-(2-Hydroxy-phenyl)-7-methyl-quinazolin-4-yl]-piperidin-4-yl}-carbamic acid tert-butyl ester], the IC50 is under 2 µM. For `Cc1ccc2c(N3CCC[C@@H](CNC(=O)OCC(C)C)C3)nc(-c3c(O)cccc3F)nc2c1` [Example 260, Isobutyl ((S)-1-(2-(2-fluoro-6-hydroxyphenyl)-7-methylquinazolin-4-yl)piperidin-3-yl)methylcarbamate] the value was under 2 µM.

On to `COCCOC(=O)NC[C@@H]1CCCN(c2nc(-c3c(O)cccc3F)nc3cc(C)ccc23)C1` [Example 261, 2-Methoxyethyl ((S)-1-(2-(2-fluoro-6-hydroxyphenyl)-7-methylquinazolin-4-yl)piperidin-3-yl)methylcarbamate], for which the IC50 was in the range of 2 to 10 µM. For the compound `CCOC(=O)NC[C@@H]1CCCN(c2nc(-c3c(O)cccc3F)nc3cc(C)ccc23)C1` [Example 262, Ethyl ((S)-1-(2-(2-fluoro-6-hydroxyphenyl)-7-methylquinazolin-4-yl)piperidin-3-yl)methylcarbamate], the IC50 was 2 to 10 µM.

Take `Cc1ccc2c(N3CCC(NC(=O)C(O)C(C)C)CC3)nc(-c3ccccc3O)nc2c1` (stereo not drawn) [Example 264]: the IC50 was over 10 µM. For `Cc1ccc2c(N3CCC(NC(=O)C(O)CC(C)C)CC3)nc(-c3ccccc3O)nc2c1` (stereo not drawn) [Example 265], the IC50 is over 10 µM.

Consider `Cc1ccc2c(N3CCC(CNC(=O)C(O)C(C)C)CC3)nc(-c3ccccc3O)nc2c1` (stereo not drawn) [Example 266], for which the IC50 lay in the range of 2 to 10 µM. Take `Cc1ccc2c(N3CCC(NC(=O)[C@H](O)CC(C)C)CC3)nc(-c3ccccc3O)nc2c1` [Example 267]: the IC50 is over 10 µM. For `Cc1ccc2c(N3CCC(NC(=O)[C@@H](O)CC(C)C)CC3)nc(-c3ccccc3O)nc2c1` [Example 268] the value was over 10 µM; for `Cc1ccc2c(N3CCC(CNC(=O)[C@H](O)C(C)C)CC3)nc(-c3ccccc3O)nc2c1` [Example 269], over 10 µM. For `Cc1ccc2c(N3CCN(C(=O)C(O)CC(C)C)CC3)nc(-c3ccccc3O)nc2c1` (stereo not drawn) [Example 270] the value was 2 to 10 µM; for `Cc1ccc2c(N3CCC(C(=O)NCC4CCCO4)CC3)nc(-c3ccccc3O)nc2c1` (stereo not drawn) [Example 271], over 10 µM. Next, `Cc1ccc2c(N3CCC(NC(=O)O[C@@H]4CCOC4)CC3)nc(-c3ccccc3O)nc2c1` [Example 272]: 2 to 10 µM. Consider `Cc1ccc2c(N3CCC(NC(=O)OCC4CCCO4)CC3)nc(-c3ccccc3O)nc2c1` (stereo not drawn) [Example 274], for which the IC50 lay in the range of 2 to 10 µM. On to `Cc1ccc2c(N3CCC(NC(=O)OCC4CCOC4)CC3)nc(-c3ccccc3O)nc2c1` (stereo not drawn) [Example 275], for which the IC50 is 2 to 10 µM. Next, `Cc1ccc2c(N3CCC(NC(=O)[C@H]4CCCO4)CC3)nc(-c3ccccc3O)nc2c1` [Example 276, (R)-Tetrahydro-furan-2-carboxylic acid {1-[2-(2-hydroxy-phenyl)-7-methyl-quinazolin-4-yl]-piperidin-4-yl}-amide]: 2 to 10 µM.

Turning to `Cc1ccc2c(N3CCC(NC(=O)[C@@H]4CCCO4)CC3)nc(-c3ccccc3O)nc2c1` [Example 277], the IC50 was 2 to 10 µM. Next, `Cc1ccc2c(N3CCC(CNC(=O)OCC(C)C)CC3)nc(-c3ccccc3O)nc2c1` [Example 278]: over 10 µM; `Cc1ccc2c(N3CCC(CNC(=O)OC(C)C)CC3)nc(-c3ccccc3O)nc2c1` [Example 279]: 2 to 10 µM; `Cc1ccc2c(N3CCC(NC(=O)O[C@@H]4CO[C@H]5OCC[C@H]54)CC3)nc(-c3ccccc3O)nc2c1` [Example 280]: 2 to 10 µM. For the compound `Cc1ccc2c(N3CCC[C@@H](CNC(=O)O[C@H]4CO[C@@H]5OCC[C@@H]54)C3)nc(-c3ccccc3O)nc2c1` [Example 281], the IC50 lay within 2 to 10 µM. Next, `Cc1ccc2c(N3CCC[C@@H](NC(=O)OCC(C)C)C3)nc(-c3ccccc3O)nc2c1` [Example 282]: under 2 µM. Next, `Cc1ccc2c(N3CCC(NC(=O)[C@H]4CCCO4)CC3)nc(-c3ccccc3O)nc2c1` [Example 283]: under 2 µM; `Cc1ccc2c(N3CC[C@@H](NC(=O)O[C@H]4CCOC4)C3)nc(-c3ccccc3O)nc2c1` [Example 301, (S)-Tetrahydrofuran-3-yl (R)-1-(2-(2-hydroxyphenyl)-7-methylquinazolin-4-yl)pyrrolidin-3-ylcarbamate]: 2 to 10 µM; `Cc1ccc2c(N3CC[C@@H](NC(=O)[C@H]4CCCO4)C3)nc(-c3ccccc3O)nc2c1` [Example 302, (R,R)-Tetrahydro-furan-2-carboxylic acid {1-[2-(2-hydroxy-phenyl)-7-methyl-quinazolin-4-yl]-pyrrolidin-3-yl}-amide]: over 10 µM.

Turning to `Cc1ccc2c(N3CC[C@H](NC(=O)O[C@H]4CCOC4)C3)nc(-c3ccccc3O)nc2c1` [Example 304, (S,S)-{1-[2-(2-Hydroxy-phenyl)-7-methyl-quinazolin-4-yl]-pyrrolidin-3-yl}-carbamic acid tetrahydro-furan-3-yl ester], the IC50 was over 10 µM. Next, `Cc1ccc2c(N3CC[C@@H](CNC(=O)O[C@H]4CCOC4)C3)nc(-c3ccccc3O)nc2c1` [Example 305, (S)-Tetrahydrofuran-3-yl ((S)-1-(2-(2-hydroxyphenyl)-7-methylquinazolin-4-yl)pyrrolidin-3-yl)methylcarbamate]: 2 to 10 µM; `Cc1ccc2c(N3CC[C@H](CNC(=O)O[C@@H]4CCOC4)C3)nc(-c3ccccc3O)nc2c1` [Example 306, (R)-Tetrahydrofuran-3-yl ((R)-1-(2-(2-hydroxyphenyl)-7-methylquinazolin-4-yl)pyrrolidin-3-yl)methylcarbamate]: over 10 µM; `Cc1ccc2c(N3CC[C@H](CNC(=O)O[C@H]4CCOC4)C3)nc(-c3ccccc3O)nc2c1` [Example 307, (S)-Tetrahydrofuran-3-yl ((R)-1-(2-(2-hydroxyphenyl)-7-methylquinazolin-4-yl)pyrrolidin-3-yl)methylcarbamate]: over 10 µM. With `Cc1ccc2c(N3CC[C@H](CNC(=O)[C@H]4CCCO4)C3)nc(-c3ccccc3O)nc2c1` [Example 308, (2R)-Tetrahydro-N—(((R)-1-(2-(2-hydroxyphenyl)-7-methylquinazolin-4-yl)pyrrolidin-3-yl)methyl)furan-2-carboxamide], the IC50 is over 10 µM. Next, `Cc1ccc2c(N3CC[C@@H](NC(=O)OCc4ccccc4)C3)nc(-c3ccccc3O)nc2c1` [Example 309, (R)-{1-[2-(2-Hydroxy-phenyl)-7-methyl-quinazolin-4-yl]-pyrrolidin-3-yl}-carbamic acid benzyl ester]: under 2 µM. As to `Cc1ccc2c(N3CC[C@@H](CNC(=O)[C@H]4CCCO4)C3)nc(-c3ccccc3O)nc2c1` [Example 310, (2R)-Tetrahydro-N—(((S)-1-(2-(2-hydroxyphenyl)-7-methylquinazolin-4-yl)pyrrolidin-3-yl)methyl)furan-2-carboxamide], the IC50 lay in the range of 2 to 10 µM. Next, `Cc1ccc2c(N3CC[C@@H](CNC(=O)C4CC4)C3)nc(-c3ccccc3O)nc2c1` [Example 311, N—(((S)-1-(2-(2-Hydroxyphenyl)-7-methylquinazolin-4-yl)pyrrolidin-3-yl)methyl)cyclopropanecarboxamide]: under 2 µM; `Cc1ccc2c(N3CC[C@@H](NC(=O)C4CC4)C3)nc(-c3ccccc3O)nc2c1` [Example 312, (R)-Cyclopropanecarboxylic acid {1-[2-(2-hydroxy-phenyl)-7-methyl-quinazolin-4-yl]-pyrrolidin-3-yl}-amide]: 2 to 10 µM.

Take `Cc1ccc2c(N3CC[C@@H](NC(=O)OCC4CCCCO4)C3)nc(-c3ccccc3O)nc2c1` (stereo partly drawn) [Example 314, (Tetrahydro-2H-pyran-2-yl)methyl (R)-1-(2-(2-hydroxyphenyl)-7-methylquinazolin-4-yl)pyrrolidin-3-ylcarbamate]: the IC50 lay within 2 to 10 µM. For `Cc1ccc2c(N3CC[C@@H](NC(=O)C4CCC(=O)N4)C3)nc(-c3ccccc3O)nc2c1` (stereo partly drawn) [Example 315, (R)-5-Oxo-pyrrolidine-2-carboxylic acid {1-[2-(2-hydroxy-phenyl)-7-methyl-quinazolin-4-yl]-pyrrolidin-3-yl}-amide] the value was over 10 µM; for `Cc1ccc2c(N3CC[C@@H](NC(=O)C4CCOCC4)C3)nc(-c3ccccc3O)nc2c1` [Example 316, Tetrahydro-N—((R)-1-(2-(2-hydroxyphenyl)-7-methylquinazolin-4-yl)pyrrolidin-3-yl)-2H-pyran-4-carboxamide], over 10 µM.
